Assay results taken from US20220331448A1, “COMPOSITIONS AND METHODS FOR TREATING SUCCINIC SEMIALDEHYDE DEHYDROGENASE DEFICIENCY (SSADHD)” (Washington State University, priority 2018, published 2022).
Read-outs that look alike come from different tables or passages of the source.

Columns and labels:
[1] = target: T1, GABA-transaminase (Mus musculus, UniProt P61922); settings: daily doses ˜10 mg/kg or osmotic minipumps; cited from earlier work
T1 construct: from tissue; host or cells: living mice (CNS), endogenous enzyme
T1 sequence (P61922 29-500): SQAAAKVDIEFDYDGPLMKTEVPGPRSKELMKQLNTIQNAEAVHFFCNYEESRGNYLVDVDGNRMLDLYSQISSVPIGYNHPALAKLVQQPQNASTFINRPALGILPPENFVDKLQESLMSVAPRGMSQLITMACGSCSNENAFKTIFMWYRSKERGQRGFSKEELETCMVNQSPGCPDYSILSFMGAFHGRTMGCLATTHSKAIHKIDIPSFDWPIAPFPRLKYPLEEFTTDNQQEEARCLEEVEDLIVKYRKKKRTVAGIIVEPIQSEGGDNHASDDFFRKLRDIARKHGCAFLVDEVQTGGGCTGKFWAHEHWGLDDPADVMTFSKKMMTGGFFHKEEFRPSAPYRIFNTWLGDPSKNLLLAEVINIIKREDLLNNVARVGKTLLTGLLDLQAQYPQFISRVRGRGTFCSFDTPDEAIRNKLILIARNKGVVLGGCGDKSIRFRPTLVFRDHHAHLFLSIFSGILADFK

[2] = system: aldh5a1−/− mice; settings: cited from earlier work
[3] = system: aldh5a1−/− mouse brain; assay: Brain gene expression (GABA(A) receptor subunits, AMPK/mTOR pathway) under Torin drugs; assay type: in vivo
[4] = system: aldh5a1−/− mouse brain; settings: in vivo; cited from earlier work
[5] = system: aldh5a1+/+ and aldh5a1−/− mice; assay: Electrocorticography: seizures under Torin 2; assay type: in vivo; settings: 10 mg/kg, mean ± SEM
Experimental: FIG. 7—Representative electrocorticographic recordings of seizure types in an aldh5a1−/− mouse.
Studies with Torin 2 administration in aldh5a1−/− mice, beginning at DOL10 under an escalating dose paradigm, were evaluated for seizures using a three channel recording electrocorticography (Pinnacle Technology; https://www.pinnaclet.com/eeg-emg-systerns.html) and electrode-implanted aldh5a1+/+ and aldh5a1−/− mice. EEG was scored offline using semi-automated detection (Neuroscore, Data Sciences International, St. Paul, Minn.) for seizure frequency (total number of seizures), and total ictal time (cumulative time spent in seizures); where a seizure event was defined as a run of continuous spikes ≥3s in duration on the EEG. Automatically detected events were verified by visual inspection (Dhamne et al. Mol Autism 8:26 (2017)). Our prediction was that Torin 2 administration would lead to improvement in both parameters. […] If these receptors remain immature, consistent with our hypothesis for bumetanide (see above), then their subsequent up-regulation could conceivably exacerbate depolarization, and thus enhance cumulative epileptic outburst duration, as Applicants observed (Table 2). […]

SMILES	GABA in the CNS [1]	rescue from premature lethality / lifespan extension [2]	expression of Stk11 (AMPK's activator) ([3]; aldh5a1−/− mice)	lower expression of Tsc1 and 2 ([3]; aldh5a1−/− mouse brain)	expression of GABA(A)ergic receptor subunits [4]	Seizure Frequency [5] [avg/hr]	Total Ictal Time [5]	rescue from premature lethality / lifespan extension ([2]; listed as Torin2)	rescue from premature lethality / lifespan extension ([2]; listed as torin 2)
C=CC(N)CCC(=O)O (stereo not shown) [vigabatrin]	significantly elevated	rescue	–	–	–	–	–	–	–
Nc1ccc(-c2ccc3ncc4ccc(=O)n(-c5cccc(C(F)(F)F)c5)c4c3c2)cn1 [Torin 2]	–	rescue	normalized	normalized	corrected (upregulated)	0.50 ± 0.59	2.1 ± 1.2 seconds (avg/hr)	striking	significantly prolong the lifespan
